Legend:
[1] = target: T1, FAOD-L (Aspergillus terreus, UniProt Q92204); assay: Effect of metal ion on the activity of FAOD-L; assay type: biochemical, A. terreus GP1; conditions: for relative activity (%): material 1 mM, 0.1 M Tris-HCl pH 8.0, 5 min at 30° C., None = 100; for effect of metal ion on FAOD-L, in words: 1 mM
T1 construct: 94 kDa by gel filtration, 48 kDa subunit, so homodimer
Protocol: (§1) To an enzyme solution was added a solution containing a metal ion to be tested at a final concentration of 1 mM in 0.1 M Tris-HCl buffer (pH 8.0). After 5-minute-incubation at 30° C., the enzyme activity was assayed.

[2] = test system: FAOD-A; assay: Effect of metal ion on the activity of FAOD-A; assay type: biochemical, A. terreus IFO6365; conditions: for effect of metal ion on FAOD-A, in words: 1 mM
Protocol: as §1

[3] = test system: FAOD-A originated from A. terreus IFO6365; assay: Substrate specificity of FAOD-A; assay type: biochemical
Protocol: (§2) A 100 mM FZL solution was prepared by dissolving previously-obtained FZL in distilled water. To 100 μl of 45 mM 4-aminoantipyrine, 100 μl of 60 U/ml peroxidase, 100 μl of 60 mM phenol, 1 ml of 0.1 M Tris-HCl buffer (pH 8.0) and 50 μl of enzyme solution was added distilled water to total volume of 3.0 ml. The mixture was incubated at 30° C. for 2 minutes, 50 μl of 100 mM FZL solution was added thereto, and the time course of absorbance at 505 nm was measured. The amount (μmole) of hydrogen peroxide generated per minute was calculated on the basis of molar absorptivity (5.16×10^3 M^-1 cm^-1) of quinone pigment produced, and the resultant numerical value was taken as a unit(U) of enzyme activity.

[4] = target: T2, FAOD-L originated from A. terreus GP1 (Aspergillus terreus, UniProt Q92204); assay: Substrate specificity of FAOD-L; assay type: biochemical
T2 construct: 94 kDa by gel filtration, 48 kDa subunit, so homodimer
T2 sequence (Q92204 1-437): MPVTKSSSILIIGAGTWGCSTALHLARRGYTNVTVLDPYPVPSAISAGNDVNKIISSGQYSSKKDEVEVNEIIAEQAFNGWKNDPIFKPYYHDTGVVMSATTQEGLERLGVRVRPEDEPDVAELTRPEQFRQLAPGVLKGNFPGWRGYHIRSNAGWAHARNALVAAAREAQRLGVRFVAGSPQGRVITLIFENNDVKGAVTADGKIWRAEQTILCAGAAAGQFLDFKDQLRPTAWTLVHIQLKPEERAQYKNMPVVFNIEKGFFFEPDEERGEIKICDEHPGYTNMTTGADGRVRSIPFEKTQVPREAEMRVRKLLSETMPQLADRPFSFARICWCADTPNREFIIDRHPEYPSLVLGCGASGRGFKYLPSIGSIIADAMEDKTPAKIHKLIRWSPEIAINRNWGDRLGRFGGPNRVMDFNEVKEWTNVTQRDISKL
Protocol: as §2

[5] = test system: FAOD-A; assay: Effect of various inhibitors on FAOD-A activity; assay type: biochemical, A. terreus IFO6365; conditions: for inhibition of FAOD-A activity, in words: PCMB 0.1 mM, others 1 mM
Protocol: as §1
(§3) The inhibitory effect of various substances was tested in a manner substantially analogous to that described in (1) above. In the present test, the final concentration of parachloro mercuric benzoate (PCMB) is 0.1 mM while that of others 1 mM.

[6] = target: T1, FAOD-L; assay: Effect of various inhibitors on FAOD-L activity; assay type: biochemical, A. terreus GP1; conditions: for inhibition of FAOD-L activity, in words: PCMB 0.1 mM, others 1 mM
Protocol: as §1, §3

[7] = material 1 mM, 0.1 M Tris-HCl pH 8.0, 5 min at 30° C., None = 100
[8] = substrate concentration 1.67 mM

**Q.** With `O=S(=O)([O-])[O-].[Fe+2]` [FeSO4] as the molecule, how does the “relative activity (%)” value [1] read?
**A.** Its value is 95%.

**Q.** Which “effect of metal ion on FAOD-L, in words” value [1] does the source give for `[Cu+2]` [copper] here?
**A.** The value was “inhibitory”.

**Q.** How did the “relative activity (%)” value ([2]; pH 8) turn out when `[Cl-].[Na+]` [NaCl] was run?
**A.** The value was 104%.

**Q.** How did the “effect of metal ion on FAOD-A, in words” value [2] turn out when `[Co]` [cobalt] was run?
**A.** Its value is “inhibitory”.

**Q.** For `[Zn+2]` [zinc], which “effect of metal ion on FAOD-L, in words” value [1] is on record?
**A.** Its value is “inhibitory”.

**Q.** And the “effect of metal ion on FAOD-A, in words” value [2]?
**A.** The value was “inhibited”.

**Q.** For N^ε -Fructosylpoly-L-lysine, which “Specific activity (%)” value ([3]; substrate concentration 0.02%) is on record?
**A.** Its value is 2.0%.

**Q.** What about the “Specific activity (%)” value ([4]; substrate concentration 0.02%) of the same molecule?
**A.** Its value is 0.30%.

**Q.** Which results are given for `[Cl][Mn][Cl]` [MnCl2]?
**A.** relative activity (%) [1]: 101%; effect of metal ion on FAOD-A, in words [2]: inhibitory; relative activity (%) [2, 7]: 59%

**Q.** What does the source list for mercury?
**A.** effect of metal ion on FAOD-L, in words [1]: inhibited completely; effect of metal ion on FAOD-A, in words [2]: inhibited

**Q.** For `NNC(N)=O` [semicarbazide], which “relative activity (%)” value ([5]; material 1 mM, None = 100) is on record?
**A.** The value was 64%.

**Q.** Which results are given for `O=C(N[C@@H](CCCCNCC(=O)[C@@H](O)[C@H](O)[C@H](O)CO)C(=O)O)OCc1ccccc1` [N^ε -fructosyl N^α -Z-lysine]?
**A.** Specific activity (%) [3, 8]: 100%; Specific activity (%) [4, 8]: 100%

**Q.** How did the “relative activity (%)” value [2, 7] turn out when `[Cl-].[Cs+]` [CsCl] was run?
**A.** Its value is 108%.

**Q.** Which “relative activity (%)” value [2, 7] does the source give for `[Cl-].[Li+]` [LiCl] here?
**A.** The value was 103%.

**Q.** `[Ca+2].[Cl-].[Cl-]` [CaCl2] was tested. Which “relative activity (%)” value [1] did it give?
**A.** Its value is 96%.

**Q.** And the “relative activity (%)” value [2, 7]?
**A.** The value was 104%.

**Q.** Which “inhibition of FAOD-A activity, in words” value [5] does the source give for `O=C(O)c1cc(SSc2ccc([N+](=O)[O-])c(C(=O)O)c2)ccc1[N+](=O)[O-]` [DTNB, 5,5Dithiobis(2-nitrobenzoic acid)] here?
**A.** The value was “inhibit the FAOD-A activity completely”.

**Q.** What about the “inhibition of FAOD-L activity, in words” value [6] of the same molecule?
**A.** The value was “inhibit the FAOD-L activity strongly”.

**Q.** What does the source list for Fructosyl valine?
**A.** Specific activity (%) [3, 8]: 20.5%; Specific activity (%) [4, 8]: 32.1%

**Q.** For `[Cl-].[Rb+]` [RbCl], which “relative activity (%)” value [2, 7] is on record?
**A.** Its value is 107%.

**Q.** With `[Cl-].[Cl-].[Mg+2]` [MgCl2] as the molecule, how does the “relative activity (%)” value [1] read?
**A.** The value was 101%.

**Q.** And the “relative activity (%)” value [2, 7]?
**A.** Its value is 108%.

**Q.** How did the “relative activity (%)” value ([5]; material 1 mM, None = 100) turn out when `c1ccc(-c2ccccn2)nc1` [α,α-Dipyridyl] was run?
**A.** Its value is 67%.

**Q.** For `O=C(O)CI` [Acetic iodide], which “relative activity (%)” value [5] is on record?
**A.** Its value is 66%.

**Q.** What does the source list for `NO` [hydroxylamine]?
**A.** relative activity (%) ([5]; material 1 mM, None = 100): 10%; relative activity (%) ([6]; material 1 mM, None = 100): 2%

**Q.** For `c1cnc2c(c1)ccc1cccnc12` [o-Phenanthroline], which “relative activity (%)” value ([5]; material 1 mM, None = 100) is on record?
**A.** Its value is 62%.

**Q.** With `NN` [hydrazine] as the molecule, how does the “inhibition of FAOD-A activity, in words” value [5] read?
**A.** Its value is “inhibit the FAOD-A activity completely”.

**Q.** And the “inhibition of FAOD-L activity, in words” value [6]?
**A.** Its value is “inhibit the FAOD-L activity strongly”.

**Q.** How did the “inhibition of FAOD-A activity, in words” value [5] turn out when `O=C(O)c1cc[c]([Hg][Cl])cc1` [p-CMB, parachloro mercuric benzoate] was run?
**A.** The value was “inhibit the FAOD-A activity completely”.

**Q.** And the “inhibition of FAOD-L activity, in words” value [6]?
**A.** The value was “inhibit the FAOD-L activity strongly”.

**Q.** Which “inhibition of FAOD-A activity, in words” value [5] does the source give for `NNc1ccccc1` [phenylhydrazine] here?
**A.** The value was “inhibit the FAOD-A activity completely”.

**Q.** Which “effect of metal ion on FAOD-L, in words” value [1] does the source give for `[Ag+]` [silver] here?
**A.** The value was “inhibited completely”.
